Columns and labels:
[1] = system: HCV replicon in Huh7 cells; assay: HCV replicon cell-based assay; set-up: species or system HCV strain 1B; details: Hepatitis C virus, Huh-7, 96 h; HCV replicon, Huh7 cells, 4 days; activity ranges; read-out: EC50
Description: An HCV replicon whole cell system was established as described by Lohmann V, Korner F, Koch J, Herian U, Theilmann L, Bartenschlager R., Science 285(5424):110-3 (1999). This system enabled us to evaluate the effects of our HCV Protease compounds on HCV RNA replication. Briefly, using the HCV strain 1B sequence described in the Lohmann paper (Assession number:AJ238799), an HCV cDNA was generated encoding the 5′ internal ribosome entry site (IRES), the neo gene, the EMCV-IRES and the HCV nonstructural proteins, NS3-NS5B, and 3′ NTR. […] Resulting cell lines were characterized for positive and negative RNA production and protein production over time.
Huh7 cells, constitutively expressing the HCV replicon, were grown in DMEM containing 10% FCS (Fetal calf serum) and 1 mg/ml G418 (Gibco-BRL). Cells were seeded the night before (1.5×10^4 cells/well) in 96-well tissue-culture sterile plates. Compound was prepared in DMEM containing 4% FCS, 1:100 Penicillin/Streptomysin, 1:100 L-glutamine and 0.5% DMSO. Compound/DMSO mixes were added to the cells and incubated for 4 days at 37° C. After 4 days, cells were either lyzed using the Rneasy kit (Qiagen) to isolate and purify RNA for an EC50 determination or assessed for cytotoxicity using alamar Blue (Trek Diagnotstic Systems) for a CC50 reading. For an EC50 determination, purified total RNA was normalized using RiboGreen (Jones L J, Yue S T, Cheung C Y, Singer V L, Anal. Chem., 265(2):368-74 (1998)) and relative quantitation of HCV RNA expression assessed using the Taqmann procedure (Kolykhalov A A, Mihalik K, Feinstone S M, Rice C M, Journal of Virology 74, 2046-2051 (2000)). Briefly, RNA made to a volume of 5 μl (≦1 ng) was added to a 20 μl Ready-Mix containing the following: 5×EZ rTth buffer, 3 mM MnOAc2, 3 mM dNTPs, 200 nM forward primer, 600 nM reverse primer, 100 nM probe and rTth polymerase. Samples containing known concentrations of HCV RNA transcript were run as standards. Using the following cycling protocol (95° C., 1 min; 60° C., 0.5 min; 95° C., 2 min; 40 cycles of 94° C., 0.5 min, 60° C.; 1 min; and completing with 60° C., 10 min), HCV RNA expression was quantitated as described in the Perkin Elmer manual. The toxicity of compound (CC50) was determined by adding 1/10th volume of alamar Blue to the media incubating the cells. After 4 hr, the fluorescence signal from each well was read, with an excitation wavelength at 530 nm and an emission wavelength of 580 nm, using the Cytofluor Series 4000 (Perspective Biosystems).

[2] = target: HCV NS3/4A protease complex (Hepatitis C virus genotype 1a, UniProt P27958, C1454S/C1711G); assay: Recombinant HCV NS3/4A protease complex FRET peptide assay (strain not stated); assay type: biochemical; details: IC50, NS3/4A protease enzyme assay, strain not stated; activity ranges
Description: The purpose of this in vitro assay was to measure the inhibition of HCV NS3 protease complexes, derived from the BMS, H77C or J416S strains, as described below, by compounds of the present invention.
Serum from an HCV-infected patient was obtained from Dr. T. Wright, San Francisco Hospital. An engineered full-length cDNA template of the HCV genome (BMS strain) was constructed from DNA fragments obtained by reverse transcription-PCR (RT-PCR) of serum RNA and using primers selected on the basis of homology between other genotype 1a strains. […] The infectious clones, H77C (1a genotype) and J4L6S (1b genotype) were obtained from R. Purcell (NIH) and the sequences are published in genebank (AAB67036, see Yanagi, M., Purcell, R. H., Emerson, S. U. and Bukh, J. Proc. Natl. Acad. Sci. U.S.A. 94(16),8738-8743 (1997); AF054247, see Yanagi, M., St Claire, M., Shapiro, M., Emerson, S. U., Purcell, R. H. and Bukh, J, Virology 244 (1), 161-172. (1998)).
The BMS, H77C and J4L6S strains were used for production of recombinant NS3/4A protease complexes. DNA encoding the recombinant HCV NS3/4A protease complex (amino acid 1027 to 1711) for these strains were manipulated as described by P. Gallinari et al. (see Gallinari P, Paolini C, Brennan D, Nardi C, Steinkuhler C, De Francesco R. Biochemistry. 38(17):5620-32, (1999)). Briefly, a three-lysine solubilizing tail was added at the 3′-end of the NS4A coding region. The cysteine in the P1 position of the NS4A-NS4B cleavage site (amino acid 1711) was changed to a glycine to avoid the proteolytic cleavage of the lysine tag. Furthermore, a cysteine to serine mutation was introduced by PCR at amino acid position 1454 to prevent the autolytic cleavage in the NS3 helicase domain. The variant DNA fragment was cloned in the pET21b bacterial expression vector and the NS3/4A complex was expressed in E. coli BL21 (DE3) following the protocol described by P. Gallinari et al. (see Gallinari P, Brennan D, Nardi C, Brunetti M, Tomei L, Steinkuhler C, De Francesco R., J Virol. 72(8):6758-69 (1998)) with modifications. Briefly, NS3/4A expression was induced with 0.5 mM IPTG for 22 hr at 20° C. […] The cells were resuspended in lysis buffer (10 mL/g) consisting of 25 mM HEPES, pH 7.5, 20% glycerol, 500 mM NaCl, 0.5% Triton-X100, 1 ug/ml lysozyme, 5 mM MgCl2, 1 ug/ml DNaseI 5 mM β-Mercaptoethanol (βME), Protease inhibitor—EDTA free, homogenized and incubated for 20 mins at 4° C. The homogenate was sonicated and clarified by ultra-centrifugation at 235000 g for 1 hr at 4° C. Imidazole was added to the supernatant to a final concentration of 15 mM and the pH adjusted to 8.0. The crude protein extract was loaded on a Ni-NTA column pre-equilibrated with buffer B (25 mM HEPES, pH 8.0, 20% glycerol, 500 mM NaCl, 0.5% Triton-X100, 15 mM imidazole, 5 mM βME). The sample was loaded at a flow rate of 1 mL/min. The column was washed with 15 column volumes of buffer C (same as buffer B except with 0.2% Triton-X100). The protein was eluted with 5 column volumes of 200 mM Imidazole in buffer.
NS3/4A protease complex-containing fractions were pooled and loaded on a desalting column Superdex-S200 pre-equilibrated with buffer D (25 mM HEPES, pH 7.5, 20% glycerol, 300 mM NaCl, 0.2% Triton-X100, 10 mM βME). Sample was loaded at a flow rate of 1 mL/min. NS3/4A protease complex-containing fractions were pooled and concentrated to approximately 0.5 mg/ml.

HCV NS3/4A protease complex, sequence (P27958 1027-1711, stated change not applied): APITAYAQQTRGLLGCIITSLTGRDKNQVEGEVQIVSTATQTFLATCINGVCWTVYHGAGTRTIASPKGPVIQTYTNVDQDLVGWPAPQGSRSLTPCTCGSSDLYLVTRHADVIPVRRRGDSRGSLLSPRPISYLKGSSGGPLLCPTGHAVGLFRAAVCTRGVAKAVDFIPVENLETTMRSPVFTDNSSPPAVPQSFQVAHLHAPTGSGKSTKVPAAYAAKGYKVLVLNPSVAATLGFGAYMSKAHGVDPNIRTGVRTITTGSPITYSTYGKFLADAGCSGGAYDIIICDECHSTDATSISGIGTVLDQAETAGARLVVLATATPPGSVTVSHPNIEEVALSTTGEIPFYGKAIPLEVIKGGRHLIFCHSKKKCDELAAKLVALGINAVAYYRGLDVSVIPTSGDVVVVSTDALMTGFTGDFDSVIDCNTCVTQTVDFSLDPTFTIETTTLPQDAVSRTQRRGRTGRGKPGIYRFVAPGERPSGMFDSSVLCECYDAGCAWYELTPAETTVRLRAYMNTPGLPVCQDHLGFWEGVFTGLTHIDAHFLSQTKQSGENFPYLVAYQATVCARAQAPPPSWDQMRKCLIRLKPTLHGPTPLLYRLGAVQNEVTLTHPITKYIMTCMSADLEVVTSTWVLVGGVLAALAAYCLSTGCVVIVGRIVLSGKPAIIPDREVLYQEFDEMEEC
HCV NS3/4A protease complex, sequence (P27958 1027-1711, stated change not applied): as above

SMILES	EC50 [1]	IC50 [2]
C=CCOC(=O)N[C@H](C(=O)N1C[C@H](Oc2cc(-c3ccccc3)nc3cc(OC)ccc23)CC1C(=O)N[C@]1(C(=O)NS(=O)(=O)C2CC2)C[C@H]1C=C)C(C)(C)C (stereo partly drawn) [Compound 126, {1S-[2S-(1R-cyclopropanesulfonylaminocarbonyl-2S-vinyl-cyclopropylcarbamoyl)-4R-(7-methoxy-2-phenyl-quinolin-4-yloxy)-pyrrolidine-1-carbonyl]-2,2-dimethyl-propyl}-carbamic acid allyl ester]	< 50 nM	< 50 nM
C=CC1C[C@]1(NC(=O)[C@@H]1C[C@@H](Oc2cc(-c3ccccc3)nc3cc(OC)ccc23)CN1C(=O)[C@@H](NC(=O)N(CCC(F)(F)F)CC1CC1)C(C)(C)C)C(=O)NS(=O)(=O)C1CC1 (stereo in doubt) [Compound 20, 1-{2-[3-Cyclopropylmethyl-3-(3,3,3-trifluoropropyl)-ureido]-3,3-dimethylbutyryl}-4-(7-methoxy-2-phenyl-quinolin-4-yloxy)-pyrrolidine-2-carboxylic acid (1-cyclopropanesulfonylaminocarbonyl-2-vinyl-cyclopropyl)amide]	< 500 nM	< 50 nM
C=C[C@@H]1C[C@]1(NC(=O)C1CC(Oc2cc(-c3ccccc3)nc3cc(OC)ccc23)CN1C(=O)[C@@H](NC(=O)Oc1ccccc1)C(C)(C)C)C(=O)NS(=O)(=O)C1CC1 (stereo partly drawn) [Compound 116, {1S-[2S-(1R-cyclopropanesulfonylaminocarbonyl-2S-vinyl-cyclopropylcarbamoyl)-4R-(7-methoxy-2-phenyl-quinolin-4-yloxy)-pyrrolidine-1-carbonyl]-2,2-dimethyl-propyl}-carbamic acid phenyl ester]	< 50 nM	< 50 nM
C#CCOC(=O)N[C@H](C(=O)N1C[C@H](Oc2cc(-c3ccccc3)nc3cc(OC)ccc23)CC1C(=O)N[C@]1(C(=O)NS(=O)(=O)C2CC2)C[C@H]1C=C)C(C)(C)C (stereo partly drawn) [Compound 124, {1S-[2S-(1R-cyclopropanesulfonylaminocarbonyl-2S-vinyl-cyclopropylcarbamoyl)-4R-(7-methoxy-2-phenyl-quinolin-4-yloxy)-pyrrolidine-1-carbonyl]-2,2-dimethyl-propyl}-carbamic acid prop-2-ynyl ester]	< 50 nM	< 50 nM
CCC1C[C@]1(NC(=O)[C@@H]1C[C@@H](Oc2cc(-c3ccccc3)nc3cc(OC)ccc23)CN1C(=O)[C@@H](NC(=O)OC(C)(C)C)C(C)(C)C)C(=O)NS(=O)(=O)C1CC1 (stereo in doubt) [Compound 2, {1-[2-(1-cyclopropanesulfonylamino-carbonyl-2-ethylcyclopropylcarbamoyl)-4-(7-methoxy-2-phenyl-quinolin-4-yloxy)-pyrrolidine-1-carbonyl]-2,2-dimethylpropyl}carbamic acid tert-butyl ester]	< 50 nM	< 50 nM
C=CC1C[C@]1(NC(=O)[C@@H]1C[C@@H](Oc2cc(-c3ccccc3)nc3cc(OC)ccc23)CN1C(=O)[C@@H](NC(=O)OC(C)(C)C)C(C)(C)C)C(=O)NS(=O)(=O)C1CCC1 (stereo in doubt) [Compound 11, {1-[2-(1-Cyclobutanesulfonylaminocarbonyl-2-vinylcyclo-propylcarbamoyl)-4-(7-methoxy-2-phenylquinolin-4-yloxy)-pyrrolidine-1-carbonyl]-2,2-dimethylpropyl}carbamic acid tert-butyl ester]	< 50 nM	< 50 nM
C=CC1C[C@]1(NC(=O)[C@@H]1C[C@@H](Oc2cc(-c3ccccc3)nc3cc(OC)ccc23)CN1C(=O)[C@@H](NC(=O)OC(C)(C)C)C(C)(C)C)C(=O)NS(=O)(=O)c1ccccc1[N+](=O)[O-] (stereo partly shown) [Compound 51]	< 500 nM	< 50 nM
C=C1C[C@]1(NC(=O)[C@@H]1C[C@@H](Oc2cc(-c3ccccc3)nc3cc(OC)ccc23)CN1C(=O)C(NC(=O)OC(C)(C)C)C(C)(C)C)C(=O)NS(=O)(=O)c1cccc(C(F)(F)F)c1 (stereo partly shown) [Compound 48]	< 500 nM	< 50 nM
C=C[C@@H]1C[C@]1(NC(=O)C1CC(Oc2cc(-c3ccccc3)nc3cc(OC)ccc23)CN1C(=O)[C@@H](NC(=O)OC)C(C)(C)C)C(=O)NS(=O)(=O)C1CC1 (stereo partly drawn) [Compound 113, {1S-[2S-(1R-cyclopropanesulfonylaminocarbonyl-2S-vinyl-cyclopropylcarbamoyl)-4R-(7-methoxy-2-phenyl-quinolin-4-yloxy)-pyrrolidine-1-carbonyl]-2,2-dimethyl-propyl}carbamic acid methyl ester]	< 50 nM	< 50 nM
C=C[C@@H]1C[C@]1(NC(=O)C1C[C@@H](Oc2cc(-c3ccccc3)nc3cc(OC)ccc23)CN1C(=O)[C@@H](NC(=O)CO)C(C)(C)C)C(=O)NS(=O)(=O)C1CC1 (stereo partly drawn) [Compound 102, 1-[2S-(2-hydroxy-acetylamino)-3,3-dimethyl-butyryl]-4R-(7-methoxy-2-phenyl-quinolin-4-yloxy)-pyrrolidine-2S-carboxylic acid (1R-cyclopropanesulfonylamino-carbonyl-2S-vinyl-cyclopropyl)-amide]	< 500 nM	< 50 nM
C=COC(=O)N[C@H](C(=O)N1C[C@H](Oc2cc(-c3ccccc3)nc3cc(OC)ccc23)CC1C(=O)N[C@]1(C(=O)NS(=O)(=O)C2CC2)C[C@H]1C=C)C(C)(C)C (stereo partly drawn) [Compound 123, {1S-[2S-(1R-cyclopropanesulfonylaminocarbonyl-2S-vinyl-cyclopropylcarbamoyl)-4R-(7-methoxy-2-phenyl-quinolin-4-yloxy)-pyrrolidine-1-carbonyl]-2,2-dimethyl-propyl}-carbamic acid vinyl ester]	< 50 nM	< 50 nM
